Assay results published in article PMC12775434, “Ultra-large virtual screening unveils potent agonists of the neuromodulatory orphan receptor GPR139” (Nature Communications, 2025).
Several values for one entry are separate records, joined by “and”; a condition that tells them apart may be missing. Equal entries are not always repeated.

Experiments:
GPR139 [1] = target: T1, GPR139 (Homo sapiens, UniProt Q6DWJ6); assay: Ca2+ mobilization assay, agonist mode, stable GPR139-CHOk1 cell line; type: cell-based; settings: for Ca2+ signal (% of Cmp 1a): Agonist mode
T1 sequence (Q6DWJ6 1-353): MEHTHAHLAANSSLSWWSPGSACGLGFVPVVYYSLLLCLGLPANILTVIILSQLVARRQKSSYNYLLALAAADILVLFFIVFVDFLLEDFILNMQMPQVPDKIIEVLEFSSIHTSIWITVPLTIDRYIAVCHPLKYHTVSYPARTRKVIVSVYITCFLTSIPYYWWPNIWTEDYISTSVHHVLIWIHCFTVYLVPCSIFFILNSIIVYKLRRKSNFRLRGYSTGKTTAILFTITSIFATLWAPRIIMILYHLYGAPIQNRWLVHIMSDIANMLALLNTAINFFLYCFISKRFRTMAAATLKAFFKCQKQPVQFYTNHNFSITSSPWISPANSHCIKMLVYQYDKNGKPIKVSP
Protocol: Primary screening and pharmacological characterization of compounds were performed using a CHO-K1 cell line that stably expresses human GPR139 (GPR139-CHOk1). The GPR139-CHOk1 cell line was kindly provided by H. Lundbeck A/S, Denmark[24]. GPR139-CHOk1 cells were grown in Ham’s F-12 Kaighn’s Modification Medium (ThermoFisher #21127030) supplemented with 10% dialyzed fetal bovine serum (US origin, ThermoFisher #26400044), 100 units/mL Penicillin-Streptomycin (ThermoFisher #15140122), and 1 mg/mL Geneticin (ThermoFisher #11811031). […] M1R-CHOk1 cells were purchased from The Missouri S&T cDNA Resource Center (#CEM100TN00). M1R-CHOk1 cells were grown in Ham’s F12 Medium (ThermoFisher #21765029) supplemented with 10% fetal bovine serum (Brazilian origin, ThermoFisher #10270106), 100 units/mL Penicillin-Streptomycin, and 0.25 mg/mL Geneticin. HEK293A cells transiently transfected with GPR139 were used for additional pharmacological assessment of signaling pathways activated by GPR139. HEK239A cells were generously provided by Dr. Asuka Inoue, Tohoku University, Japan. HEK293A cells were grown in Dulbecco’s Modified Eagle Medium (ThermoFisher #31966047) supplemented with 10% dialyzed fetal bovine serum and 100 units/mL Penicillin-Streptomycin. Cell lines were maintained at 37 °C in humidified incubator equilibrated with 5% CO2.
(§1) 30,000 GPR139- or M1R-CHOk1 cells/well were seeded in black clear bottom tissue culture treated 96-well plates (Greiner #655090) and grown for 20–24 h. Cells were washed with HEPES buffer (Hank’s Balanced Salt Solution (HBBS) supplemented with 20 mM HEPES, 1 mM MgCl2, and 1 mM CaCl2; pH 7.4). Cells were loaded with 50 µL of 2 µM Fluo-4 AM dye (ThermoFisher #F14202) in HEPES buffer supplemented with 2.5 mM probenecid and 0.01% Pluronic F-68 (ThermoFisher #24040032) for 1 h at 37 °C. Cells were washed with HEPES buffer. 50 µL HEPES buffer supplemented with 2.5 mM probenecid was added, and the cells were incubated for 10 min at 37 °C before measurement. 50 µL test compounds diluted in HEPES buffer from DMSO stocks (final DMSO concentration of maximally 0.3%) were added automatically after baseline measurements. The intracellular calcium mobilization was measured on a FlexStation 3 Multimode Microplate Reader (Molecular Devices) at 37 °C with filters for excitation of 485 nm and emission of 525 nm.
(§2) Our primary compound screening protocol consisted of two subsequent steps that allowed to screen for agonists and antagonists simultaneously. In the first step, the screening compounds were applied at 10 µM to test for agonist activity (agonist mode). Following 20 min incubation with the compounds added in the first step, in the second step, an EC80 concentration (800 nM) of the reference agonist Lundbeck Cmp 1a was applied to test for antagonist activity (antagonist mode).
Pharmacological data and statistical analyses were performed in GraphPad Prism v9–10 (Graphpad Software Inc., San Diego, CA), which are also specifically described in the figure and table legends. The functional assay responses were normalized to buffer (0%) and Lundbeck Cmp 1a or JNJ-63533054 (100%), for Ca^2+ and IP1 experiments in the GPR139-CHOk1 stable cell line or Ca^2+, G protein activation, and arrestin-3 recruitment experiments in the HEK293A cells transiently transfected with GPR139, respectively. Data are from at least three independent experiments, unless stated otherwise. Concentration-response curves were fitted applying non-linear regression using the log (agonist) versus response model with variable slope. ANOVA was applied for comparing results and determining statistical significance.

GPR139 [2] = target: T1, GPR139; assay: Ca2+ mobilization assay, antagonist mode (EC80 800 nM Lundbeck Cmp 1a after 20 min preincubation), GPR139-CHOk1; type: cell-based
Protocol: as §1
as §2, with “(antagonist mode). In the agonist mode (first step) response is seen only with compounds having agonist activity (Cmp 1a), but not with non-receptor-binding compounds (Vehicle) or antagonists (NCRW0105-E06) (Supplementary Fig. 14). […] No antagonist compounds were identified in this study.” for “(antagonist mode).”

[3] = individual replicates (Supplementary Figure 1)
[4] = individual replicates (Supplementary Figure 4)

Row | SMILES | Ca2+ signal (% of Cmp 1a) (GPR139 [1]; [3]) | Ca2+ signal (% of Cmp 1a) (GPR139 [2]; [3]) | Ca2+ signal (% of Cmp 1a) (GPR139 [1]; [4]) | Ca2+ signal (% of Cmp 1a) (GPR139 [2]; [4]) | activation of GPR139 in analog screen (GPR139 [1]; 10 µM) | change in potency with larger substituents on the thiophene ring (GPR139 [1]; Ca2+ mobilization)
1 | C[C@H](NC(=O)c1cn2cccnc2n1)c1ccccc1 [Compound 18, C[C@H](NC(=O)C1=CN2C=CC=NC2=N1)C=3C=CC=CC3] | 2.28 % of Cmp 1a and 13 % of Cmp 1a and 21 % of Cmp 1a | 80.6397 % of Cmp 1a and 68.0976 % of Cmp 1a and 80.5455 % of Cmp 1a |  |  |  | 
2 | O=C(CCn1cnc2cc(Cl)ccc2c1=O)Nc1ccccc1F [Compound 46, FC=1C=CC=CC1NC(=O)CCN2C=NC=3C=C(Cl)C=CC3C2=O] | 2.73 % of Cmp 1a and -6 % of Cmp 1a (2×) | 71.2649 % of Cmp 1a and 88.164 % of Cmp 1a and 80.2917 % of Cmp 1a |  |  |  | 
3 | CC(NC(=O)N(C)Cc1cccc(N(C)C)c1)c1csnn1 (stereo not drawn) [Compound 50, CC(NC(=O)N(C)CC=1C=CC=C(C1)N(C)C)C2=CSN=N2] | -2.47 % of Cmp 1a and 0.0154 % of Cmp 1a and -4 % of Cmp 1a | 75.065 % of Cmp 1a and 68.1289 % of Cmp 1a and 85.7156 % of Cmp 1a |  |  |  | 
4 | O=C(Cn1ccnc1)Nc1cccc(N2C(=O)c3ccccc3C2=O)c1 [Compound 24, O=C(CN1C=CN=C1)NC=2C=CC=C(C2)N3C(=O)C=4C=CC=CC4C3=O] | -4 % of Cmp 1a and 3 % of Cmp 1a and -9 % of Cmp 1a | 76.1398 % of Cmp 1a and 60.9703 % of Cmp 1a and 76.3719 % of Cmp 1a |  |  |  | 
5 | Cc1cc2c(=O)n(CC(O)C(C)c3ccccc3)cnc2cc1F (stereo not drawn) [Compound 48, CC(C(O)CN1C=NC=2C=C(F)C(C)=CC2C1=O)C=3C=CC=CC3] | 3.29 % of Cmp 1a and 10 % of Cmp 1a and 6 % of Cmp 1a | 94.1087 % of Cmp 1a and 84.538 % of Cmp 1a and 82.6111 % of Cmp 1a |  |  |  | 
6 | Cc1ccc(C(C)NC(=O)Nc2ccc3c(c2)CCCC3=O)o1 (stereo not drawn) [Compound 49, CC(NC(=O)NC=1C=CC=2C(=O)CCCC2C1)C3=CC=C(C)O3] | 20 % of Cmp 1a and 6 % of Cmp 1a and 32 % of Cmp 1a | 51.3038 % of Cmp 1a and 78.2883 % of Cmp 1a and 60.6272 % of Cmp 1a |  |  |  | 
7 | C[C@@H](NC(=O)CSc1nc2cc(Cl)cnc2[nH]1)c1ccccc1 [Compound 63, C[C@@H](NC(=O)CSC1=NC=2C=C(Cl)C=NC2N1)C=3C=CC=CC3] | 14 % of Cmp 1a and 5 % of Cmp 1a and 16 % of Cmp 1a | 69.704 % of Cmp 1a and 80.7602 % of Cmp 1a and 71.5084 % of Cmp 1a |  |  |  | 
8 | CC(NC(=O)c1occc1COc1ccccc1)c1ccon1 (stereo not drawn) [Compound 32, CC(NC(=O)C=1OC=CC1COC=2C=CC=CC2)C=3C=CON3] | -11 % of Cmp 1a and -0.416 % of Cmp 1a and 7 % of Cmp 1a | 55.4318 % of Cmp 1a and 73.597 % of Cmp 1a and 97.305 % of Cmp 1a |  |  |  | 
9 | CC(CC(=O)N(CC(=O)N1CCCC1)CC1CCCO1)n1cccc1 (stereo not drawn) [Compound 22, CC(CC(=O)N(CC1CCCO1)CC(=O)N2CCCC2)N3C=CC=C3] | 10 % of Cmp 1a and -5.34 % of Cmp 1a and 0.0706 % of Cmp 1a | 90.9616 % of Cmp 1a and 92.7534 % of Cmp 1a and 72.9128 % of Cmp 1a |  |  |  | 
10 | COc1ccc(OCc2nc(CC(=O)NC(C)c3ccccc3)no2)cc1 (stereo not drawn) [Compound 1.37, COC1=CC=C(OCC2=NC(CC(NC(C3=CC=CC=C3)C)=O)=NO2)C=C1] |  |  | 65 % of Cmp 1a and 55 % of Cmp 1a and 21 % of Cmp 1a | 36 % of Cmp 1a and 40 % of Cmp 1a and 37 % of Cmp 1a |  | 
11 | COc1ccc2cc(-c3nc(CC(=O)NC(C)c4ccccc4)no3)sc2c1 (stereo not drawn) [Compound 1.36, COC1=CC2=C(C=C(C3=NC(CC(NC(C4=CC=CC=C4)C)=O)=NO3)S2)C=C1] |  |  | 0 % of Cmp 1a and -15 % of Cmp 1a and -10 % of Cmp 1a | 52 % of Cmp 1a and 69 % of Cmp 1a and 54 % of Cmp 1a | All analogs, with the exception of compound 1.36, activated GPR139 | three-fold reduction to a complete loss of activity
12 | CC(C(=O)Nc1cccc(-c2nc3ccccc3n2C)c1)n1cccn1 (stereo not drawn) [Compound 67, CC(C(=O)NC=1C=CC=C(C1)C2=NC=3C=CC=CC3N2C)N4C=CC=N4] | 3.19 % of Cmp 1a and -6 % of Cmp 1a and -7 % of Cmp 1a | 87.0817 % of Cmp 1a and 99.3874 % of Cmp 1a and 88.8295 % of Cmp 1a |  |  |  | 
13 | C[C@@H](NC(=O)CSc1nnc2n1CCCCC2)c1ccccc1 [Compound 53, C[C@@H](NC(=O)CSC1=NN=C2CCCCCN12)C=3C=CC=CC3] | 10 % of Cmp 1a and 6 % of Cmp 1a and 3.73 % of Cmp 1a | 70.6126 % of Cmp 1a and 69.0784 % of Cmp 1a and 84.522 % of Cmp 1a |  |  |  | 
14 | O=C(Nc1nc(C(F)(F)F)cs1)c1ccccc1-n1cnnn1 [Compound 58, FC(F)(F)C1=CSC(NC(=O)C=2C=CC=CC2N3C=NN=N3)=N1] | 8 % of Cmp 1a and -1.73 % of Cmp 1a and -5 % of Cmp 1a | 95.3999 % of Cmp 1a and 91.9653 % of Cmp 1a and 85.8363 % of Cmp 1a |  |  |  | 
15 | CC(=O)c1sc(NC(=O)Cc2cncs2)nc1-c1ccccc1 [Compound 36, CC(=O)C=1SC(NC(=O)CC2=CN=CS2)=NC1C=3C=CC=CC3] | 9 % of Cmp 1a and -3 % of Cmp 1a and 2.21 % of Cmp 1a | 88.0715 % of Cmp 1a and 92.8057 % of Cmp 1a and 66.8597 % of Cmp 1a |  |  |  | 
16 | C[C@H](NC(=O)c1ccc(=O)n(-c2ccc(F)cc2)n1)c1ccccc1 [Compound 16, C[C@H](NC(=O)C=1C=CC(=O)N(N1)C=2C=CC(F)=CC2)C=3C=CC=CC3] | -6 % of Cmp 1a and 42 % of Cmp 1a and 24 % of Cmp 1a | 74.1067 % of Cmp 1a and 36.0111 % of Cmp 1a and 92.3974 % of Cmp 1a |  |  |  | 
17 | CN(Cc1ncc(Cl)n1C)c1nc2cc([N+](=O)[O-])ccc2[nH]1 [Compound 40, CN(CC1=NC=C(Cl)N1C)C2=NC=3C=C(C=CC3N2)[N+](=O)[O-]] | -0.934 % of Cmp 1a and 6 % of Cmp 1a and 11 % of Cmp 1a | 84.3072 % of Cmp 1a and 83.9821 % of Cmp 1a and 105.029 % of Cmp 1a |  |  |  | 
